Assay results from patent publication US20240116897A1, “BENZOTHIAZOLE AND BENZIMIDAZOLE DERIVATIVES, PHARMACEUTICALLY ACCEPTABLE SALT THEREOF, PREPARATION METHOD THEREFOR, AND PHARMACEUTICAL COMPOSITION COMPRISING SAME AS ACTIVE INGREDIENT” (KOREA RESEARCH INSTITUTE OF CHEMICAL TECHNOLOGY, priority 2021, published 2024).

Biological target: T1, SIRT7 protein (Homo sapiens, UniProt Q9NRC8)
T1 construct: purchased SignalChem S41-30H
T1 sequence (Q9NRC8 1-400): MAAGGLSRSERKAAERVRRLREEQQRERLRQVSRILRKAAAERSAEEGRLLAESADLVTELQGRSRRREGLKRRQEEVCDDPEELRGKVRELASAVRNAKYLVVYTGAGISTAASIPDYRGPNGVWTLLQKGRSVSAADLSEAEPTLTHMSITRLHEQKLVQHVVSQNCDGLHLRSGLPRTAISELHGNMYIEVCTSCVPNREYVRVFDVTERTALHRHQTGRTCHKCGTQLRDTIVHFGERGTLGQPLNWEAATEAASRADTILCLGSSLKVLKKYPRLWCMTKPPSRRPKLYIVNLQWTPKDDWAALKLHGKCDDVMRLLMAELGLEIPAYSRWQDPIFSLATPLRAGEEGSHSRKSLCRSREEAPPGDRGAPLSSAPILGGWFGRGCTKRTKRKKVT
Test: SIRT Glo assay, inhibitory activity against Sirt7
Type: biochemical
Conditions: 10 μM compound
Description: Promega's Cat. No. 6450 SIRT Glo assay kit was used, and as the target SIRT7 protein, No. S41-30H protein of SignalChem's Cat. was used. Prepare the compound by diluting it in SIRT Glo buffer in advance to a concentration twice as thick as the final concentration. For the positive control group of white 384 well plate (Greiner Bioone, white, small volume, Cat. No. 874075), and for compound group, dilute sirt7 protein in SIRT Glo buffer and dispense by 5 μL to contain 20 ng per well. In the background control group, 10 μL of SIRT Glo buffer is dispensed.
After adding 5 μL of SIRT Glo buffer to the positive control group, and 5 μL of the diluted compound to the compound group, react for 30 minutes. After making the substrate provided in the SIRT Glo assay, adding 10 μL each, and reacting for 1 hour, the luciferase activity is measured with a microplate reader (Molecular Device, spectramax i3).
Subtract the luciferase level of the background control group in all wells. The % inhibition of the compound was used to obtain the compound's rate of inhibitory activity against sirt7 in the following:
% inhibition=100−(compound group/positive control group)×100.

| Structure (SMILES) | inhibition at 10 µM |
| --- | --- |
| O=C(Nc1nc2ccccc2s1)c1ccc(CN2C[C@@H]3C[C@H]2CN3C(=O)Nc2ccccc2)cc1 [Compound 1-73, (1S,4S)-5-(4-(benzo[d]thiazol-2-ylcarbamoyl)benzyl)-N-phenyl-2,5-diazabicyclo[2.2.1]heptane-2-carboxamide] | 64% |
| CC(C)(C)OC(=O)N1CC=C(c2ccc(C(=O)Nc3nc4ccccc4s3)cc2)CC1 [Compound 1-74, tert-butyl 4-(4-(benzo[d]thiazol-2-ylcarbamoyl)phenyl)-3,6-dihydropyridine-1-(2H)-carboxylate] | 10% |
| O=C(Nc1nc2ccccc2s1)c1ccc(C2=CCNCC2)cc1 [Compound 1-75, N-(benzo[d]thiazol-2-yl)-4-(1,2,3,6-tetrahydropyridin-4-yl)benzamide] | 26% |
| O=C(Nc1nc2ccccc2s1)c1ccc(C2=CCN(C(=O)Nc3ccc(C(F)(F)F)cc3)CC2)cc1 [Compound 1-76] | 5% |
| O=C(Nc1nc2ccccc2s1)c1ccc(C2CCN(C(=O)Nc3ccc(C(F)(F)F)cc3)CC2)cc1 [Compound 1-77] | 6% |
| CC(C)(C)OC(=O)N1CCC(=Cc2ccc(C(=O)Nc3nc4ccccc4s3)c(C(F)(F)F)c2)CC1 [Compound 1-78, tert-butyl 4-(4-(benzo[d]thiazol-2-ylcarbamoyl)-3-(trifluoromethyl)benzylidene)piperidine-1-carboxylate] | 14% |
| O=C(Nc1nc2ccccc2s1)c1ccc(C=C2CCNCC2)cc1C(F)(F)F [Compound 1-79, N-(benzo[d]thiazol-2-yl)-4-(piperidin-4-ylidenemethyl)-2-(trifluoromethyl)benzamide] | 71% |
| CCNC(=O)N1CCC(=Cc2ccc(C(=O)Nc3nc4ccccc4s3)c(C(F)(F)F)c2)CC1 [Compound 1-80, 4-(4-(benzo[d]thiazol-2-ylcarbamoyl)-3-(trifluoromethyl)benzylidene)-N-ethylpiperidine-1-carboxamide] | 80% |
| O=C(Nc1nc2ccccc2s1)c1ccc(C=C2CCN(C(=O)Nc3ccccc3)CC2)cc1C(F)(F)F [Compound 1-81, 4-(4-(benzo[d]thiazol-2-ylcarbamoyl)-3-(trifluoromethyl)benzylidene)-N-phenylpiperidine-1-carboxamide] | 32% |
| CC(C)(C)OC(=O)N1CCC(Cc2ccc(C(=O)Nc3nc4ccccc4s3)c(C(F)(F)F)c2)CC1 [Compound 1-82, tert-butyl 4-(4-(benzo[d]thiazol-2-ylcarbamoyl)-3-(trifluoromethyl)benzyl)piperidine-1-carboxylate] | 2% |
| O=C(Nc1nc2ccccc2s1)c1ccc(CC2CCNCC2)cc1C(F)(F)F [Compound 1-83, N-(benzo[d]thiazol-2-yl)-4-(piperidin-4-ylmethyl)-2-(trifluoromethyl)benzamide] | 42% |
| CCNC(=O)N1CCC(Cc2ccc(C(=O)Nc3nc4ccccc4s3)c(C(F)(F)F)c2)CC1 [Compound 1-84, 4-(4-(benzo[d]thiazol-2-ylcarbamoyl)-3-(trifluoromethyl)benzyl)-N-ethylpiperidine-1-carboxamide] | 53% |
| O=C(Nc1nc2ccccc2s1)c1ccc(CC2CCN(C(=O)Nc3ccccc3)CC2)cc1C(F)(F)F [Compound 1-85, 4-(4-(benzo[d]thiazol-2-ylcarbamoyl)-3-(trifluoromethyl)benzyl)-N-phenylpiperidine-1-carboxamide] | 28% |
| CC(C)(C)OC(=O)N1CCC(=Cc2ccc(C(=O)Nc3nc4ccccc4s3)c(F)c2)CC1 [Compound 1-86, tert-butyl 4-(4-(benzo[d]thiazol-2-ylcarbamoyl)-3-fluorobenzylidene)piperidine-1-carboxylate] | 60% |
| O=C(Nc1nc2ccccc2s1)c1ccc(C=C2CCNCC2)cc1F [Compound 1-87, N-(benzo[d]thiazol-2-yl)-2-fluoro-4-(piperidin-4-ylidenemethyl)benzamide] | 100% |
| CCNC(=O)N1CCC(=Cc2ccc(C(=O)Nc3nc4ccccc4s3)c(F)c2)CC1 [Compound 1-88, 4-(4-(benzo[d]thiazol-2-ylcarbamoyl)-3-fluorobenzylidene)-N-ethylpiperidine-1-carboxamide] | 100% |

| Structure (SMILES) | inhibition at 10 µM |
| --- | --- |
| O=C(Nc1nc2ccccc2s1)c1ccc(C=C2CCN(C(=O)Nc3ccccc3)CC2)cc1F [Compound 1-89, 4-(4-(benzo[d]thiazol-2-ylcarbamoyl)-3-fluorobenzylidene)-N-phenylpiperidine-1-carboxamide] | 97% |
| O=C(Nc1nc2ccccc2s1)c1ccc(C=C2CCN(S(=O)(=O)c3ccccc3)CC2)cc1F [Compound 1-90, N-(benzo[d]thiazol-2-yl)-2-fluoro-4-((1-(phenylsulfonyl)piperidin-4-ylidene)methyl)benzamide] | 27% |
| CCS(=O)(=O)N1CCC(=Cc2ccc(C(=O)Nc3nc4ccccc4s3)c(F)c2)CC1 [Compound 1-91, N-(benzo[d]thiazol-2-yl)-4-((1-(ethylsulfonyl)piperidin-4-ylidene)methyl)-2-fluorobenzamide] | 76% |
| O=C(Nc1nc2ccccc2s1)c1ccc(C=C2CCN(C(=O)c3ccccc3)CC2)cc1F [Compound 1-92, N-(benzo[d]thiazol-2-yl)-4-((1-benzoylpiperidin-4-ylidene)methyl)-2-fluorobenzamide] | 97% |
| O=C(Nc1nc2ccccc2s1)c1ccc(C=C2CCN(C(=O)Nc3ccc(C(F)(F)F)cc3)CC2)cc1F [Compound 1-93, 4-(4-(benzo[d]thiazol-2-ylcarbamoyl)-3-fluorobenzylidene)-N-(4-(trifluoromethyl)phenyl)piperidine-1-carboxamide] | 70% |
| CC(C)NC(=O)N1CCC(=Cc2ccc(C(=O)Nc3nc4ccccc4s3)c(F)c2)CC1 [Compound 1-94, 4-(4-(benzo[d]thiazol-2-ylcarbamoyl)-3-fluorobenzylidene)-N-isopropylpiperidine-1-carboxamide] | 98% |
| CC(C)(C)OC(=O)N1CCC(=Cc2ccc(C(=O)Nc3nc4ccccc4s3)cc2Cl)CC1 [Compound 1-95, tert-butyl 4-(4-(benzo[d]thiazol-2-ylcarbamoyl)-2-chlorobenzylidene)piperidine-1-carboxylate] | 34% |
| O=C(Nc1nc2ccccc2s1)c1ccc(C=C2CCNCC2)c(Cl)c1 [Compound 1-96, N-(benzo[d]thiazol-2-yl)-3-chloro-4-(piperidin-4-ylidenemethyl)benzamide] | 91% |
| CCNC(=O)N1CCC(=Cc2ccc(C(=O)Nc3nc4ccccc4s3)cc2Cl)CC1 [Compound 1-97, 4-(4-(benzo[d]thiazol-2-ylcarbamoyl)-2-chlorobenzylidene)-N-ethylpiperidine-1-carboxamide] | 100% |
| CC(C)(C)OC(=O)N1CCC(=Cc2cc(F)c(C(=O)Nc3nc4ccccc4s3)c(F)c2)CC1 [Compound 1-98, tert-butyl 4-(4-(benzo[d]thiazol-2-ylcarbamoyl)-3,5-difluorobenzylidene)piperidine-1-carboxylate] | 21% |
| O=C(Nc1nc2ccccc2s1)c1c(F)cc(C=C2CCNCC2)cc1F [Compound 1-99, N-(benzo[d]thiazol-2-yl)-2,6-difluoro-4-(piperidin-4-ylidenemethyl)benzamide] | 63% |
| CCNC(=O)N1CCC(=Cc2cc(F)c(C(=O)Nc3nc4ccccc4s3)c(F)c2)CC1 [Compound 1-100, 4-(4-(benzo[d]thiazol-2-ylcarbamoyl)-3,5-difluorobenzylidene)-N-ethylpiperidine-1-carboxamide] | 96% |
| O=C(Nc1nc2ccccc2s1)c1c(F)cc(C=C2CCN(C(=O)Nc3ccccc3)CC2)cc1F [Compound 1-101, 4-(4-(benzo[d]thiazol-2-ylcarbamoyl)-3,5-difluorobenzylidene)-N-phenylpiperidine-1-carboxamide] | 100% |
| O=C(Nc1nc2ccccc2s1)c1c(F)cc(C=C2CCN(C(=O)Nc3ccc(C(F)(F)F)cc3)CC2)cc1F [Compound 1-102, 4-(4-(benzo[d]thiazol-2-ylcarbamoyl)-3,5-difluorobenzylidene)-N-(4-(trifluoromethyl)phenyl)piperidine-1-carboxamide] | 37% |
| CC(C)(C)OC(=O)N1CCC(=Cc2ccc(C(=O)Nc3nc4ccccc4s3)c(Cl)c2)CC1 [Compound 1-103, tert-butyl 4-(4-(benzo[d]thiazol-2-ylcarbamoyl)-3-chlorobenzylidene)piperidine-1-carboxylate] | 44% |
| O=C(Nc1nc2ccccc2s1)c1ccc(C=C2CCNCC2)cc1Cl [Compound 1-104, N-(benzo[d]thiazol-2-yl)-2-chloro-4-(piperidin-4-ylidenemethyl)benzamide] | 92% |
